Reference: patent publication US11219625B2, “Inhibitors of N-linked glycosylation and methods using same” (YALE UNIVERSITY, priority 2015, dated 2022)

How the values were obtained:
Format in all cases: cell-based
[1] = test system: HCC827 cells; assay: MTT proliferation assay, HCC827; details: HCC827, 10 μM NGI-1, 5 d, p<0.05
Method: (§1) FIGS. 7A-7D illustrate EGFR kinase domain mutant cell lines growth inhibition and cell cycle arrest response to NGI-1. FIG. 7A illustrates MTT assays to determine the effects of NGI-1 on growth of H3255 cells. FIG. 7B illustrates MIT assays to determine the effects of NGI-1 on growth of HCC827 cells. EGFR kinase domain mutant cell lines H3255 and HCC827 cells were untreated or treated with 10 μM NGI-1 for 5 d. […] FIG. 7C illustrates cell cycle distribution of H3255 after 24 h NGI-1 treatment for 24 h determined by flow cytometry. FIG. 7D illustrates cell cycle distribution of HCC827 after 24 h NGI-1 treatment for 24 h determined by flow cytometry.
Growth rates were determined by CellTiter 96 NonRadioactive Cell Proliferation Assay (Promega; Madison, Wis. USA) according to the manufacturer's directions. Briefly, NSCLC cells (2×10^3) untreated or treated with […] NGI-1 or 1 μM Tn, were seeded in triplicates in 96-wells plates and grown in culture medium containing […]. Cell numbers were estimated after 0, 3, and 5 days by adding MTT [(3-(4,5-Dimethylthiazol-2-yl)-2,5-diphenyltetrazolium bromide] reagent to the wells 4 hours before taking the spectrophotometric reading (absorbance at 570 nm).

[2] = test system: OST; assay: Free and peptide glycans in streptolysin-O permeabilized CHO cells; details: NGI-1 5 μM
Method: Fluorophore assisted carbohydrate electrophoresis (FACE) was performed as previously described (Gao, et al., Glycobiology 2002, 12, 353-360; Gao, et al., J Biol Chem 2005, 280, 17901-17909). Control (Ac-Gln-Tyr-Thr-CONH2) and acceptor (Ac-Asn-Tyr-Thr-CONH2) peptides were used for permeabilized cell experiments. Metabolic labeling of Hela cells, transfection of prosaposin (pSAP) and steroid hormone binding globulin (SHBG) vectors, and knockdown of SIT3A and STT3B to monitor N-linked glycosylation knockdown were performed as described (Shrimal, et al., J Cell Biol 2013, 201, 81-95). Western blot analysis was performed as previously described (Bennett, et al., Transl Oncol 2013, 6, 382-391). […]
The OST is an ER resident multi-subunit complex that cleaves LLOs and transfers the oligosaccharide to a protein encoded N-linked glycosylation consensus sequence (NXT/S). […] Both enzymatic products of the OST, free glycans and protein glycans, were therefore determined with and without NGI-1 treatment using optimized conditions in streptolysin-O permeabilized CHO cells (FIG. 2C). Addition of a control peptide without the N-linked glycosylation consensus sequence (QYT) led to readily detectable levels of free glycans (left panel), while addition of an acceptor peptide containing the consensus sequence (NYT) followed by PNGase treatment led to detection of cleaved peptide glycans (right panel). […]

[3] = test system: A549 cells; assay: MTT proliferation assay, A549; details: A549, 10 μM NGI-1 or 1 μM tunicamycin
Method: FIGS. 4A-4H illustrate the finding that NGI-1 blocks RTK driven proliferation. FIG. 4A illustrates western blot analysis of EGFR phosphorylation (Y1173) and gel mobility in PC9 (EGFR-mutant) and A549 (k-ras mutant) NSCLC cells after 10 μM NGI-1 treatment for 24 h. […] Actin expression was used as a control for protein loading. FIG. 4B illustrates MTT assays results of PC9 following treatment with 10 μM NGI-1 or 1 μM tunicamycin for a total of 5 d. Relative proliferation id reported in fold increase from day 0. FIG. 4C illustrates MTT assays results of A549 following treatment with 10 μM NGI-1 or 1 μM tunicamycin for a total of 5 d. Relative proliferation id reported in fold increase from day 0. FIG. 4D illustrates protein phosphorylation profiles of PC9 cells analyzed by phospho-protein array to assess the response of PC9 to 10 μM NGI-1 for 24 h. FIG. 4E illustrates protein phosphorylation profiles of A549 cells analyzed by phospho-protein array to assess the response of A549 to 10 μM NGI-1 for 24 h. […]
Growth rates were determined by CellTiter 96 NonRadioactive Cell Proliferation Assay (Promega; Madison, Wis. USA) according to the manufacturer's directions. […] Cell numbers were estimated after 0, 3, and 5 days by adding MTT [(3-(4,5-Dimethylthiazol-2-yl)-2,5-diphenyltetrazolium bromide] reagent to the wells 4 hours before taking the spectrophotometric reading (absorbance at 570 nm).

[4] = test system: HCC827 cells; assay: Cell cycle distribution by flow cytometry, HCC827; details: HCC827, NGI-1 24 h, p<0.01
Method: as §1
For the assessment of cell cycle distribution, 1×10^6 cells were collected, washed once with ice-cold PBS and fixed in ice-cold 70% ethanol overnight at −20° C. Thereafter, cells were washed twice with PBS and incubated for 30 min at room temperature in 200 μL of Guava Cell Cycle Reagent (Guava Technologies). Cytofluorometric acquisitions were performed on a LSRII cytometer (BD Biosciences). First-line analysis was performed with Flow Jo software, upon gating on the events characterized by normal forward and side scatter parameters and discrimination of doublets in a FSC-A vs. FSC-H bivariate plot. Approximately 30,000 cells were analyzed per experiment, and the mean value was obtained from 3 independent assays.

Cc1cnc(NC(=O)c2cc(S(=O)(=O)N(C)C)ccc2N2CCCC2)s1 [NGI-1, 5-(N,N-Dimethylsulfamoyl)-N-(5-methylthiazol-2-yl)-2-(pyrrolidin-1-yl)benzamide]
reduction of proliferation, MTT [1]: > 45%
production of free glycans and cleaved peptide glycans [2]: substantially reduced the production of both free and cleaved glycans
effect on proliferation, MTT [3]: continued to proliferate
cell cycle distribution [4]: undergo G1 arrest
